Reference: US10632106B2, “Methods of cancer treatment with 2-(1′H-Indole-3′-carbonyl)-thiazole-4-carboxylic acid methyl ester” (Ariagen, Inc., priority 2009, dated 2020)

How the values were obtained:
Assay type in all cases: in vivo
[1] = test system: U14 (mouse cervical cancer) homografts; assay: U14 homograft (syngeneic) growth inhibition in ICR mice; conditions: ITE 200 mg/kg i.p. once daily
Method: (§1) All the procedures related to animal handling, care, and the treatment in the study were performed following guidelines of KeyGen Biotechn Co., Ltd. (Nanjing, China), a contract research organization we hired, based on the guidance of the Association for Assessment and Accreditation of Laboratory Animal Care (AAALAC). Animals were checked for any effects of tumor growth and drug treatment on normal behavior such as mobility, food and water consumption, body weight gain/loss (bodyweights were measured every two days), eye/hair matting, and any other abnormal effect. Death and observed clinical signs were recorded. Individual animals with a tumor volume exceeding 3,000 mm^3 or animals of a group with a mean tumor volume exceeding 2,000 mm^3 were euthanized. In addition, animals showing signs of severe distress and/or pain or losing the capability of accessing adequate food or water were humanely sacrificed.
(§2) Cell lines HCT116, Siha, MFC were cultured in DMEM medium (high glucose) supplemented with 10% fetal bovine serum (FBS), SW116 and T24 in RPMI-1640 medium with 10% FBS, M14 and A375 in DMEM medium (high glucose) with 10% calf serum (CS), SGC7901 and Ketr-3 in RPMI-1640 medium with 10% CS, and CFPAC-1 in IMDM medium with 10% FBS. All of the cells were cultured, in the presence of 100 U/ml penicillin and 100 μg/ml streptomycin, at 37° C. in an atmosphere of 5% CO2 in air. […] The cells growing in an exponential phase were harvested and counted for tumor inoculation. Cell lines 5180 and U14 were maintained in ascites (peritoneal cavity fluid) of mice and were harvested and counted for tumor inoculation. […]
(§3) Tumor volume was measured every two days in two dimensions using a caliper and the volume was calculated with a formula of: V=0.5 a×b^2, where a and b are the long and short diameter (in mm) of a tumor, respectively. […] The TGD was calculated as: TGD=T−C, where T was the time (in days) required for tumors in a drug treated group to reach a predetermined mean tumor volume and C the time (in days) in the control group to reach the same volume. […]

[2] = test system: A375 (human skin cancer) xenografts; assay: A375 xenograft growth inhibition; conditions: ITE 100-200 mg/kg i.p. once daily
Method: as §1, §2, §3

[3] = test system: SW116 (human colon cancer) xenografts; assay: SW116 xenograft growth inhibition; conditions: ITE 100-200 mg/kg i.p. once daily
Method: as §1, §2, §3

[4] = end of therapy relative to beginning

COC(=O)c1csc(C(=O)c2c[nH]c3ccccc23)n1 [ITE, 2-(1′H-indole-3′-carbonyl)-thiazole-4-carboxylic acid methyl ester]
TGD ([1]; TGD at Vol. 2,000): 3 days
TGI (%) ([1]; TGI at day 6, TGI=(1−ΔT/ΔC)×100%): 46%
Weight Loss [1, 4]: 4%
TGD ([2]; TGD at Vol. 1,000): 7 days
TGI (%) ([2]; TGI at day 16, TGI=(1−ΔT/ΔC)×100%): 60%
Weight Loss [2, 4]: 18%
TGD ([3]; TGD at Vol. 1,000): 9 days
TGI (%) ([3]; TGI at day 20, TGI=(1−ΔT/ΔC)×100%): 67%
Weight Loss [3, 4]: 15%
